Data from patent publication US20070196294A1, “Photostable sunscreen compositions comprising dibenzoylmethane compound UV-A filters and s-triazine compounds” (L'OREAL, priority 2006, published 2007).

Assay: Photostability of formulations on PMMA sheets exposed in a Heraeus Suntest
Assay type: physicochemical
Details: formulations 9 and 10 versus control formulation 8
Protocol: Method for Measuring the Photostability:
For each formulation, constituents given in % by weight, 3 test samples and 3 control samples were prepared. 2 mg/cm^2 of formulation are deposited on poly(methyl methacrylate) sheets using a spatula.
The test sheets are exposed for 38 min to a Heraeus Suntest equipped with a xenon lamp having a UV-A flux of 9.51×10^−3 W/cm^2 and a UV-B flux of 5.43×10^−4 W/cm^2. The control sheets are stored for the same time and at the same temperature (38-40° C.) in darkness.
At the end of this time, the screening agents are extracted by immersing each sheet in 50 g of methanol and by subjecting them to ultrasound for 15 min in order to provide for good extraction. The solutions obtained are analyzed by HPLC and UV spectrophotometry.
For each formulation tested, the residual 4-(tert-butyl)-4′-methoxydibenzoylmethane level after exposure is given in the ratio of its optical density (OD) in the exposed sample to its unexposed optical density (OD). The positions adopted are the absorption maxima corresponding to butyl-methoxy-dibenzoylmethane: λmax=358 nm.

For `CCCCOC(=O)c1ccc(Nc2nc(Nc3ccc(C=C(C(=O)OCC(C)(C)C)C(=O)OCC(C)(C)C)cc3)nc(Nc3ccc(C=C(C(=O)OCC(C)(C)C)C(=O)OCC(C)(C)C)cc3)n2)cc1` [Example 1, 2,4-bis(dineopentyl 4′-aminobenzalmalonate)-6-(butyl 4″-aminobenzoate)-s-triazine], the “Photostability of the dibenzoylmethane in the presence of the compound (result in words)” value was “improvement in the photostability of the dibenzoylmethane”.
